Experimental data from patent publication EP1333824B1, “TREATMENT OF SEXUAL DYSFUNCTION WITH BOMBESIN RECEPTOR ANTAGONISTS” (Warner-Lambert Company LLC, priority 2000, dated 2002).

Tested on: Ovariectomised adult female Sprague Dawley rats
Assay: Female rat sexual proceptivity test (time investigating male vs female stimulus)
Type: in vivo
Experimental: Ovariectomised adult female Sprague Dawley rats (180-200g, from Charles River) were housed in groups of 6 in a reversed lighting system of 12h light:dark (lights off 7.00-19.00h). Two weeks after ovariectomy they were used for sexual activity tests. The experiments started at least 5h into the dark period.
Tests were carried out in a circular arena of 90cm diameter, surrounded by a 30cm high wall. Two small cages with wire-mesh front (15x15cm) are fixed into the wall such that the front of the cage is «flush» with the wall and the 2 cages are opposite each other. They contained two stimuli animals: an intact sexually experienced male and a receptive female (ovariectomised, primed with 5µg oestradiol benzoate dissolved in corn oil and injected subcutaneously 48 hours before the test and with 0.5 mg of progesterone four hours before the test). Sexually naive test and control animals were used. Forty eight hours before the tests, both the test and control animals were primed with 5µg oestradiol benzoate. For animals used as positive controls, progesterone (0.5mg/0.1ml) was dissolved in corn oil and administered subcutaneously (s.c.), 4h before the test. Test and control animals were introduced one at a time for 10 minute periods into the arena. During the 10min test, the time that the test or positive control animal spent investigating each stimulus animal was noted. The arena was thoroughly cleaned between animals. The position of the male/female stimuli boxes was randomised between animals, in order to avoid place preference. The difference in the percentage of time spent investigating the male minus the female stimuli was calculated, out of the total time spent investigating stimuli animals. […]
Ovariectomised adult female Sprague Dawley rats (180-200g) were housed in groups of 5 in a reversed lighting system of 12h light:dark (lights off 5.00-17.00h). They were used for the experiments at least two weeks after ovariectomy. Forty eight hours before tests, the animals were primed with oestradiol benzoate (5µg/0.1ml in corn oil, s.c.). On day 1, progesterone (0.5mg/0.1ml, in corn oil, s.c.) was administered to one of the groups 4h before tests, as a positive control. […] The test lasted 10 minutes and was carried out as described before. The difference in the percentage of time spent investigating the male minus the female stimuli was calculated, out of the total time spent investigating stimuli animals. Animals were submitted to a test on day 1 and on day 15. […] On day 15 the test took place again, as described for day 1. […]

SMILES: COc1ccc(C2(CNC(=O)[C@](C)(Cc3c[nH]c4ccccc34)NC(=O)Nc3ccc([N+](=O)[O-])cc3)CCCCC2)nc1 [Compound (1), (S) 3-(1H-Indol-3-yl)-N-[1-(5-methoxy-pyridin-2-yl)-cyclohexyl-methyl]-2-methyl-2-[3-(4-nitro-phenyl)-ureido]-propionamide]
- percentage of time spent investigating the male stimulus (Example 1, i.p., dose-dependent 3mg/kg-10mg/kg, 1h before tests, vs vehicle): increased the percentage of time spent investigating the male stimulus
- proceptivity, day 1 (Example 3, Compound (1) 15mg/kg i.p. 1h before test, progesterone 0.5mg/0.1ml s.c. 4h before, vs vehicle, P<0.01): stimulatory effect on proceptivity
- body weight or general behaviour (Example 3, repeated daily administration 15mg/kg i.p. over 15 days): no changes in body weight or general behaviour
- MED (increase in percentage of time spent investigating the male stimulus) (Example 4, i.c.v., 3-30µg/rat, 10min before tests): 10 µg
- percentage of time spent investigating the male stimulus (Example 4, i.c.v., dose-dependent 3-30µg/rat, 10min before tests): increased the percentage of time spent investigating the male stimulus
- antagonism of the inhibitory effect of NMB on proceptivity (Example 5, Compound (1) 15mg/kg i.p. 1h before i.c.v. NMB 100ng, blockade not total at this dose): prevented the inhibitory effect of NMB
